Assay results published in US20080032896A1, “Methods for identifying compounds that bind to a target” (priority 1995, published 2008).

What was measured:
[1] = test system: anti-FGF monoclonal antibody; test: FGF binding assay: inhibition of radiolabeled FGF binding to biotinylated anti-FGF antibody; set-up: species or system mouse
Method: FIG. 1 is a graph depicting the ability of compounds PPI-432, PPI-652 and PPI-654 to inhibit the binding of radiolabeled FGF to an anti-FGF antibody.
The activities of the libraries were tested using an FGF binding assay. […] Since Libraries I and II are highly diverse, the active non-peptide compounds should have a spectrum of potencies which cumulatively yield the average potency seen in the library.
The eluted non-peptide compounds were brought to dryness under vacuum. Recovered non-peptide compounds were dissolved in 50 μl water and tested for their ability to block the interaction of bFGF with the target protein. (Assuming 100% recovery of non-peptide compounds and 100% binding to bivalent antibody, the amount of recovered non-peptide compounds was calculated to be 200 ng).
Several of the non-peptide compounds selected from the combinatorial library were made synthetically and compared to the starting peptide (PPI-432) for their ability to bind to the target protein. The compounds were synthesized with an amino-terminal acetyl group and a carboxy-terminal amide. The potency of two non-peptide compounds (PPI-652 and PPI-654, shown in Table 2), containing modified amino acids at positions 5 and 7, were compared to the starting peptide PPI-432 in their ability to inhibit radiolabeled FGF binding to biotinylated anti-FGF antibody. […]

[2] = test system: monoclonal antibody to bFGF; test: Competitive binding: blocking of phage binding to the anti-bFGF antibody; set-up: species or system mouse; conditions: phage containing the sequence P-R-G-H-W-K-Q (SEQ ID NO: 9); competitive binding experiments
Method: A monoclonal antibody raised against human basic FGF (bFGF) was used as a biopanning target using a 7-mer peptide library in a bacteriophage M13 vector. To prepare the biopanning plates, four wells of an Immulon4 microtiter plate (Dynatech) were coated with stepavidin (1 μg/well) in 100 mM NaHCO3, pH 9.5, for 2 hours at room temperature or overnight at 4° C. The strepavidin-coated wells were washed three times with phosphate-buffered saline (PBS). To each well containing strepavidin, biotinylated rat anti mouse antibody K light chain (PharMingen) was added, at 1 μg/well, in PBS for 30 minutes to 1 hour at room temperature. The wells were then washed again with PBS three times. Non-specific binding sites were blocked with 300 μl/well PBS, 1% dry milk for 1 hour at room temperature. The wells were then washed with PBS, 0.1% dry milk three times, loaded with 50 μl/well PBS, 0.1% dry milk and stored at 4° C. […]
After the 2 hour room temperature incubation of the phage with the antibody, the PBS, 0.1% milk buffer was removed from the wells of the strepavidin/biotinylated α-mouse complex plates and the corresponding 100 μl of each tube containing the antibody/phage mixture was added to each of the four wells. […] The phage eluant was titered and the fractional yield determined. […]

Row | blocking of phage binding to the antibody [2] | Substance | blocking of the binding of bFGF to the antibody [1]
1 |  | P-P-G-H-F-K-D (PPGHFKD) [PPI-432] | blocked
2 | blocked | G-A-F-P-P-G-H-F-K-D-P-D-R-L (GAFPPGHFKDPDRL) [PPI-416] | blocked
